Experimental data published in article PMC7838058 (Acta Pharmaceutica Sinica. B, 2020).

Tests used:
SD rats = conditions: 100 mg/kg by gavage every 8 h for 7 days, means ± SEM, n = 8
in vitro = conditions: human, Caco-2

Row | Serum Cl (SD rats) | Papp A→B at 120 min, 2 μmol/L (in vitro) | Structure (SMILES)
1 | 101.7 ± 1.3 mmol/L |  | CC(=O)Nc1ccc(NC(=O)c2ccc([N+](=O)[O-])o2)cc1 [1H, N-(4-Acetamidophenyl)-5-nitrofuran-2-carboxamide]
2 |  | 13.1 ± 0.65 ×10⁻⁶ cm/s | COCCc1ccc(OCC(O)CNC(C)C)cc1 (centres unmarked) [metoprolol]
